A word on the EC50: it is the midpoint of the concentration-response curve.

Consider 47 compounds from US10889553B2, “Asymmetric triazole benzamide derivatives and the compositions and methods of treatment regarding the same” (NysnoBio Ireland DAC, priority 2017, dated 2021).

The target of this assay is T1, Parkin ligase (Homo sapiens, UniProt O60260).
T1 sequence (O60260 1-465): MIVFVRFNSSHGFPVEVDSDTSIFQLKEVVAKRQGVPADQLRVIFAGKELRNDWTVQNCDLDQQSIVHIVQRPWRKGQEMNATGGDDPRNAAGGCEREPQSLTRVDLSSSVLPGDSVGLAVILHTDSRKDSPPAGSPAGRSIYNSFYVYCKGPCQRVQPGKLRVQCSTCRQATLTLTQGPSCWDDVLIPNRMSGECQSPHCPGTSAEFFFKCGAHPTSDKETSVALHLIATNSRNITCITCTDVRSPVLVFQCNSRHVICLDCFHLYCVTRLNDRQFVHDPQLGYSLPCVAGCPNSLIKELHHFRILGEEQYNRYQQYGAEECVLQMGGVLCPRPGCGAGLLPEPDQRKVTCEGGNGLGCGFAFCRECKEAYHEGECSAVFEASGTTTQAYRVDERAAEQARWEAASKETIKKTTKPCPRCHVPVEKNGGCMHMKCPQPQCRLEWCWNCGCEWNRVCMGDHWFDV
As to the kind of experiment: Activity-Based Probe Assay using Ubiquitin vinyl sulfone probe (TR-FRET). Format: biochemical. The following applies: heat activated Parkin, HA-Ub-VS probe, activation EC50; read-out: Probe Assay EC50 (μM) [Example 2]. The method, then:
An Ubiquitin vinyl sulfone probe can be used that irreversibly binds to the active site cysteine of Parkin ligase. Covalent attachment of the probe to the Parkin can be monitored by TR-FRET. Candidate activator compounds can be identified by increasing the activity of Parkin ligase due to an increase in TR-FRET signal. Screening for activating compounds can be distinguished from the controls as follows: 100% activation signal=Heat activated Parkin+100 nM control activator in DMSO. 0% activation signal=Heat activated Parkin+DMSO only. Parkin activators can be identified by an increase of the 0% activation signal TR-FRET signal. Assay Conditions: Materials: • Assay Plate: White 384 well plate (Corning 3572) • Enzyme: Parkin-His tagged 203 μM (10.5 mg/ml) • Probe: Ubiquitin vinyl-sulfone (HA-Ub-VS Boston Biochem U-212) • DMSO: DMSO (Sigma cat #D4540-100ML) • Reaction Buffer: 50 mM HEPES (pH 8.5), 150 mM NaCl, 0.01% Tween 20, 0.1% BSA • Detection Buffer: 50 mM HEPES (pH 8.5), 150 mM NaCl, 0.01% Tween 20, 0.1% BSA, 800 mM KF • Detection Reagent A: 2.6 nM Anti-6HIS-Eu cryptate and 40 nM Anti-HA-XL665 in detection buffer • Eu cryptate: Anti-6HIS-Eu cryptate (CisBio 61HISKLA) • XL665: Anti-HA-XL665 (CisBio 610HAXLA) Enzyme Reaction (15 Min Pre Incubation Parkin with Activator Only) • Parkin: 40 nM • HA-Ub-VS Probe: 70 nM • Activator/DMSO: 2× Activator/2% DMSO Reaction time: 60 minutes Temperature: 22° C. Total volume: 10 μl reaction Detection Reaction Take […] of Enzyme Reaction above and add 10 μl detection Reagent A under the following conditions: • Reaction time: 60 minutes • Temperature: 22° C. • Total volume: 20 μl
Assay procedure (Using HP D-300 compound dispenser and Bravo for the operation):
1) Heat activate Parkin in reaction buffer (500 μl/1.5 ml tube: Eppendorf Thermomixer 5 minutes, 400 rpm at 58° C. and put on ice until needed).
2) Load assay plate wells with 4.8 μl 84.5 nM Parkin in reaction buffer by use of Bravo.
3) Deliver 0.2 μl 200× activator candidates in DMSO by use of HP D-300 compound dispenser. Highest 200× concentration=[…] and then twofold dilutions.
4) Spin 1000 rpm, 2 minutes, at room temp.
5) Incubate plate for 15 minutes at room temp.
6) Add 5 μl 140 nM HA-Ub-VS Probe in reaction buffer by use of Bravo.
7) Spin 1000 rpm, 2 minutes, at room temp.
8) Incubate plate for 60 minutes at room temp.
9) Add 10 μl 2.6 nM Anti-6HIS-Eu cryptate and 40 nM […] in detection buffer.
10) Spin 1000 rpm, 2 minutes, at room temp.
11) Incubate plate for 60 minutes at room temp.
12) Read plates on Perkin Elmer Envision instrument with the following parameters:
LANCE dual laser protocol loaded into the Envision® software
Top Mirror: LANCE/DELFIA Duel/Bias (Bar code 446)
Emission Filter: APC 665 EM (Bar code 205)
2nd Emission Filter: Europium 615 EM (Bar code 203)
Read 655 nm (channel 1) and 615 nm (channel 2) wavelengths on Envision®
Data Analysis: The Data can be read in CSV files. There are two tables in those CSV files, which are the values of 655 nm (channel 1) and 615 nm (channel 2) wavelengths respectively. The data is converted to an HTRF Ratio=(Channel 1/Channel 2)*10,000
The average of all the 0 μM controls (DMSO only)=BKGD (Background—0% activation). Subtract BKGD from each HTRF Ratio value=HTRF−BKGD. The average of all the […] 100 nM control activator in DMSO controls=Max (100% activation). The following equation is then used to calculate % Activation for each well/candidate as follows: % Activation=(HTRF−BKGD/Max)*100.
Graphpad Prism was used with Transform X values: X=Log(X) and nonlinear regression (dose-response-stimulation): Log(agonist) vs Response−variable slope (four parameters) with constrains set to Bottom=0 and Top=100.
The Activity-Based Probe Assay was performed with various compounds in Tables 1, 2, 3A and 3B.
A general note: In TR-FRET formats the signal depends on donor and acceptor labels being close together.

Structures are written as SMILES. Where “and” joins values, the source holds several entries; their conditions need not be identical. Identical values can stand only once.

For the compound `Cc1ccccc1C(=O)Nc1nc(NC(=O)c2ccc(N=[N+]=[N-])cc2)nn1-c1ccc(OC(F)(F)F)cc1` [Compound 76], the EC50 stood at 34 µM.

As for `Cc1ccccc1C(=O)Nc1nc(N[C@@H](C)c2ccccc2)nn1-c1ccc(C(F)(F)F)cc1` [Compound 120], the EC50 is 1 µM.

For the compound `O=C(Nc1ccccc1)c1nc(C(=O)Nc2ccccc2)n(-c2ccccc2)n1` [Compound 90], the EC50 was over 100 µM.

Take `Cc1ccccc1C(=O)Nc1nc(-c2cscn2)nn1-c1ccccc1` [Compound 135]: the EC50 is over 100 µM.

In the case of `Cc1ccccc1C(=O)Nc1nc(-c2cocn2)nn1-c1ccccc1` [Compound 140], the EC50 was over 100 µM.

For the compound `Cc1ccccc1C(=O)Nc1nc(NCCc2ccccc2)nn1-c1ccc(OC(F)(F)F)cc1` [Compound 106], the EC50 is over 100 µM.

`C#Cc1ccc(C(=O)Nc2nc(NC(=O)c3ccc(N=[N+]=[N-])cc3)nn2-c2ccccc2)cc1` [Compound 53]: the EC50 is over 100 µM.

With `Cn1cnc(-c2nc(N)n(-c3ccccc3)n2)c1` [Compound 147], the EC50 was over 100 µM.

For the compound `Cc1cccc(C)c1C(=O)Nc1nc(NC(=O)c2c(C)cccc2C)n(-c2ccccc2)n1` [Compound 100], the concentration for a half-maximal effect (EC50) came out at 9 µM.

In the case of `Cc1ccccc1C(=O)Nc1nc(NC(=O)C2CNC2)nn1-c1ccccc1` [Compound 43], the EC50 is over 100 µM.

In the case of `Cc1ccccc1C(=O)Nc1nc(NC(=O)c2cccc(N=[N+]=[N-])c2)nn1-c1ccccc1` [Compound 66], the EC50 amounted to 8 µM.

With `Cc1ccccc1C(=O)Nc1nc(NCCc2ccccc2)nn1-c1ccc(C(F)(F)F)cc1` [Compound 103], the EC50 worked out at 1 µM.

For `Cc1ccccc1C(=O)Nc1nc(NC(=O)C2CCCN2)n(-c2ccccc2)n1` (centres unmarked) [Compound 15], the EC50 was over 100 µM.

Turning to `Cc1ccccc1C(=O)Nc1nc(NC(=O)c2cccnc2)nn1-c1cccc(F)c1` [Compound 87], the concentration giving a half-maximal response (EC50) turned out to be 7 µM.

On to `Cc1ccccc1C(=O)Nc1nc(N[C@@H](C)c2ccccc2)nn1-c1ccccc1` [Compound 115], for which the EC50 was determined as 3 µM.

As to `Cc1ccccc1C(=O)Nc1nc(NCc2cccc(Cl)c2)nn1-c1ccc(OC(F)(F)F)cc1` [Compound 112], the EC50 is 1 µM.

With `O=C(Nc1nc(Nc2cccc3ccccc23)n(-c2ccccc2)n1)c1ccccc1` [Compound 52], the EC50 is 61 µM.

As to `Cc1ccccc1C(=O)Nc1nc(-c2cn(C)cn2)nn1-c1ccccc1` [Compound 125], the EC50 was over 100 µM.

`O=C(Nc1nc(NC(=O)c2ccncc2)n(-c2ccc(Cl)cc2)n1)c1ccncc1` [Compound 82]: the EC50 was 2 µM.

Turning to `Cc1ccccc1C(=O)Nc1nc(NC(=O)C2CCCNC2)nn1-c1ccccc1` (centres unmarked) [Compound 19], the EC50 was over 100 µM.

Regarding `O=S(=O)(Nc1nc(NS(=O)(=O)c2ccccc2)n(-c2ccccc2)n1)c1ccccc1` [Compound 83], the EC50 is over 100 µM.

In the case of `Cc1ccccc1C(=O)Nc1nc(NC(=O)c2cn(C)cn2)n(-c2ccccc2)n1` [Compound 22], the EC50 is over 100 µM.

As for `Cc1ccccc1C(=O)Nc1nc(NCc2ccccc2)nn1-c1ccc(OC(F)(F)F)cc1` [Compound 105], the EC50 came out at 1 µM.

For `COc1ccccc1CNc1nc(NC(=O)c2ccccc2C)n(-c2ccc(OC(F)(F)F)cc2)n1` [Compound 111], the EC50 is 2 µM.

For the compound `Cc1ccccc1C(=O)Nc1nc(NC(=O)c2cccc(N=[N+]=[N-])c2)n(-c2ccccc2)n1` [Compound 69], the EC50 is 4 µM.

As to `CCc1ccccc1C(=O)Nc1nc(NC(=O)c2ccccc2CC)n(-c2ccccc2)n1` [Compound 88], the 50% effective concentration (EC50) turned out to be 5 µM.

As to `Cc1ccccc1C(=O)Nc1nc(NCCc2ccccc2)nn1-c1ccc(Cl)cc1` [Compound 109], the EC50 was 1 µM.

As for `Cc1ccccc1C(=O)Nc1nc(NC(=O)c2cccc(N=[N+]=[N-])c2)nn1-c1ccc(OC(F)(F)F)cc1` [Compound 77], the EC50 was 6 µM.

Regarding `Cc1ccccc1C(=O)Nc1nc(-c2ncccc2C)nn1-c1ccc(OC(F)(F)F)cc1` [Compound 139], the EC50 was found to be 0.9 µM.

In the case of `Cc1ccccc1C(=O)Nc1nc(NC(=O)c2cccnc2)nn1-c1ccc(OC(F)(F)F)cc1` [Compound 86], the EC50 was found to be 6 µM.

`c1ccc(-n2nc(NCCc3ccccn3)nc2NCCc2ccccn2)cc1` [Compound 145]: the EC50 is over 100 µM.

`Cc1ccccc1C(=O)Nc1nc(NC(=O)c2cccnc2)nn1-c1ccc(Cl)cc1` [Compound 95]: the EC50 is 4 µM.

Regarding `Cc1ccccc1C(=O)Nc1nc(N[C@@H](C)c2ccccc2)nn1-c1ccc(OC(F)(F)F)cc1` [Compound 117], the EC50 was 2 µM.

With `Cc1ccccc1C(=O)Nc1nc(NCc2ccc(Cl)cc2)nn1-c1ccc(OC(F)(F)F)cc1` [Compound 113], the concentration giving a half-maximal response (EC50) was determined as 0.8 µM.

Turning to `Cc1ccccc1C(=O)Nc1nc(-c2cccc[n+]2[O-])nn1-c1ccccc1` [Compound 130], the EC50 stood at 5 µM.

As to `COc1ccc(CNc2nc(NC(=O)c3ccccc3C)n(-c3ccc(OC(F)(F)F)cc3)n2)cc1` [Compound 107], the EC50 stood at 1 µM.

Regarding `Cc1ccccc1C(=O)Nc1nc(NC(=O)c2ccc(N=[N+]=[N-])cc2)n(-c2ccccc2)n1` [Compound 70], the EC50 was 4 µM.

As to `Cc1ccccc1C(=O)Nc1nc(-c2ncccc2C)nn1-c1ccc(C(F)(F)F)cc1` [Compound 141], the EC50 was 1 µM.

Consider `Cc1ccccc1C(=O)Nc1nc(NCCc2ccccn2)nn1-c1ccccc1` [Compound 97], for which the EC50 came out at 14 µM.

In the case of `O=C(Nc1nc(NC(=O)c2c(F)c(F)c(F)c(F)c2F)nn1-c1ccccc1)c1ccccc1` [Compound 78], the EC50 was 0.2 µM and 0.4 µM and 0.5 µM.

Regarding `Cc1ccccc1C(=O)Nc1nc(NCc2ccccn2)nn1-c1ccccc1` [Compound 101], the EC50 was 18 µM.

Consider `O=C(Nc1nc(NC(=O)C2CCCCN2)n(-c2ccccc2)n1)C1CCCCN1` (centres unmarked) [Compound 49], for which the EC50 is over 100 µM.

Regarding `O=C(Nc1nc(NC(=O)c2cccnc2)n(-c2ccc(Cl)cc2)n1)c1cccnc1` [Compound 81], the EC50 is 3 µM.

Regarding `Cc1ccccc1C(=O)Nc1nc(NC(=O)C2CCCNC2)n(-c2ccccc2)n1` (centres unmarked) [Compound 14], the EC50 is over 100 µM.

As for `Cc1ccccc1C(=O)Nc1nc(NC(=O)c2ccncc2)nn1-c1ccc(C(F)(F)F)cc1` [Compound 85], the EC50 amounted to 3 µM.

`Cc1ccccc1C(=O)Nc1nc(NC(=O)c2ccncc2)nn1-c1cccc(F)c1` [Compound 89]: the EC50 amounted to 2 µM.

Consider `Cc1ccccc1C(=O)Nc1nc(-c2ncccc2C)nn1-c1ccc(Cl)cc1` [Compound 142], for which the EC50 stood at 0.3 µM.
